According to article PMC9492542, “Brain-restricted mTOR inhibition with binary pharmacology” (Nature, 2022):
“And” between values parts separate entries of the source, which are not always exact repeats. Identical values can stand only once. Like-named read-outs stand apart in the source and are kept apart here.

Experiments:
LRRK2 [1] = molecular target: LRRK2 (Mus musculus, UniProt Q5S006); experiment: Phospho-LRRK2 (S935) quantification by TR-FRET in RAW264.7 cells; conditions: for P-LRRK2(S935) in RAW264.7 cells: 100 nM compound, replicate raw data
Procedure: Phospho-LRRK2 (S935) was quantified in drug-treated cells using a Phospho-LRRK2 (Ser935) cellular kit (Cisbio) following the manufacturer’s instructions. […] Cells were treated with compounds at the indicated concentrations for 2 h. Medium was removed by aspiration and the cells were rinsed with ice-cold PBS (1 ml). Cells were lysed with 100 µl Cisbio 1X lysis buffer at 23 °C directly in plate for 30 min. […] Clarified lysate (16 µl) was dispensed into one well of a low-volume, round-bottom 384-well plate, and 4 µl LRRK2–phospho-LRRK2 (S935) antibody master mix (Cisbio) was added to each well. The plate was incubated at 23 °C for 4 h.
The TR-FRET signal was calculated as the ratio fluorescence intensity [read B]/[read A].

LRRK2 [2] = molecular target: T1, LRRK2 (Homo sapiens, UniProt Q5S007); experiment: In vitro LRRK2 kinase inhibition assay (SelectScreen Adapta), with or without 10 µM FKBP12; format: biochemical
T1 construct: purchased SelectScreen Services (Thermo Fisher Scientific)
Procedure: In vitro kinase inhibition assays were performed by SelectScreen Services (Thermo Fisher Scientific) using either Z’-LYTE (mTOR, Src, Csk, EGFR, HER2 and HGK), Adapta (LRRK2) or LanthaScreen (DDR2) assay format (standardized protocols can be accessed on the SelectScreen website: https://www.thermofisher.com/us/en/home/products-and-services/services/custom-services/screening-and-profiling-services/selectscreen-profiling-service/selectscreen-kinase-profiling-service.html. When indicated, recombinant FKBP12 protein was added to the assay mixture to a final concentration of 10 µM.

mTOR = experiment: Immunoblot analysis of mTOR signalling (p-S6, p-4EBP1) in MCF7 cells, incl. screen for blocking of rapamycin/RapaLink-1; conditions: 10 nM RapaLink-1 + 10 µM blocker, immunoblot
FKBP12 = molecular target: T2, FKBP12 (Homo sapiens, UniProt P62942); experiment: Competition fluorescence polarization assay with FITC-rapamycin tracer; format: binding
T2 construct: His-tag (HRV 3C cleavable) (cleaved yes); made in house; host or cells: Escherichia coli BL21(DE3)
T2 sequence (P62942 whole entry): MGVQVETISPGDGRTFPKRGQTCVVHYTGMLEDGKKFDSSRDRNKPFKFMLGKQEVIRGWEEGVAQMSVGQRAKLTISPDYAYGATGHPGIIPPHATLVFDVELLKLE
Procedure: Compound binding affinity was determined using a competition fluorescence polarization assay. […] The assay buffer was 20 mM HEPES pH 7.5 and 0.01% Triton X-100. […] Data were fitted to a three-parameter sigmoidal curve to derive IC50 values. Ki of the compounds were calculated using a tool provided by S. Wang’s laboratory (http://www.umich.edu/~shaomengwanglab/software/calc_ki/index.html). Data were plotted in GraphPad Prism 9.0.

T1 sequence (Q5S007 whole entry): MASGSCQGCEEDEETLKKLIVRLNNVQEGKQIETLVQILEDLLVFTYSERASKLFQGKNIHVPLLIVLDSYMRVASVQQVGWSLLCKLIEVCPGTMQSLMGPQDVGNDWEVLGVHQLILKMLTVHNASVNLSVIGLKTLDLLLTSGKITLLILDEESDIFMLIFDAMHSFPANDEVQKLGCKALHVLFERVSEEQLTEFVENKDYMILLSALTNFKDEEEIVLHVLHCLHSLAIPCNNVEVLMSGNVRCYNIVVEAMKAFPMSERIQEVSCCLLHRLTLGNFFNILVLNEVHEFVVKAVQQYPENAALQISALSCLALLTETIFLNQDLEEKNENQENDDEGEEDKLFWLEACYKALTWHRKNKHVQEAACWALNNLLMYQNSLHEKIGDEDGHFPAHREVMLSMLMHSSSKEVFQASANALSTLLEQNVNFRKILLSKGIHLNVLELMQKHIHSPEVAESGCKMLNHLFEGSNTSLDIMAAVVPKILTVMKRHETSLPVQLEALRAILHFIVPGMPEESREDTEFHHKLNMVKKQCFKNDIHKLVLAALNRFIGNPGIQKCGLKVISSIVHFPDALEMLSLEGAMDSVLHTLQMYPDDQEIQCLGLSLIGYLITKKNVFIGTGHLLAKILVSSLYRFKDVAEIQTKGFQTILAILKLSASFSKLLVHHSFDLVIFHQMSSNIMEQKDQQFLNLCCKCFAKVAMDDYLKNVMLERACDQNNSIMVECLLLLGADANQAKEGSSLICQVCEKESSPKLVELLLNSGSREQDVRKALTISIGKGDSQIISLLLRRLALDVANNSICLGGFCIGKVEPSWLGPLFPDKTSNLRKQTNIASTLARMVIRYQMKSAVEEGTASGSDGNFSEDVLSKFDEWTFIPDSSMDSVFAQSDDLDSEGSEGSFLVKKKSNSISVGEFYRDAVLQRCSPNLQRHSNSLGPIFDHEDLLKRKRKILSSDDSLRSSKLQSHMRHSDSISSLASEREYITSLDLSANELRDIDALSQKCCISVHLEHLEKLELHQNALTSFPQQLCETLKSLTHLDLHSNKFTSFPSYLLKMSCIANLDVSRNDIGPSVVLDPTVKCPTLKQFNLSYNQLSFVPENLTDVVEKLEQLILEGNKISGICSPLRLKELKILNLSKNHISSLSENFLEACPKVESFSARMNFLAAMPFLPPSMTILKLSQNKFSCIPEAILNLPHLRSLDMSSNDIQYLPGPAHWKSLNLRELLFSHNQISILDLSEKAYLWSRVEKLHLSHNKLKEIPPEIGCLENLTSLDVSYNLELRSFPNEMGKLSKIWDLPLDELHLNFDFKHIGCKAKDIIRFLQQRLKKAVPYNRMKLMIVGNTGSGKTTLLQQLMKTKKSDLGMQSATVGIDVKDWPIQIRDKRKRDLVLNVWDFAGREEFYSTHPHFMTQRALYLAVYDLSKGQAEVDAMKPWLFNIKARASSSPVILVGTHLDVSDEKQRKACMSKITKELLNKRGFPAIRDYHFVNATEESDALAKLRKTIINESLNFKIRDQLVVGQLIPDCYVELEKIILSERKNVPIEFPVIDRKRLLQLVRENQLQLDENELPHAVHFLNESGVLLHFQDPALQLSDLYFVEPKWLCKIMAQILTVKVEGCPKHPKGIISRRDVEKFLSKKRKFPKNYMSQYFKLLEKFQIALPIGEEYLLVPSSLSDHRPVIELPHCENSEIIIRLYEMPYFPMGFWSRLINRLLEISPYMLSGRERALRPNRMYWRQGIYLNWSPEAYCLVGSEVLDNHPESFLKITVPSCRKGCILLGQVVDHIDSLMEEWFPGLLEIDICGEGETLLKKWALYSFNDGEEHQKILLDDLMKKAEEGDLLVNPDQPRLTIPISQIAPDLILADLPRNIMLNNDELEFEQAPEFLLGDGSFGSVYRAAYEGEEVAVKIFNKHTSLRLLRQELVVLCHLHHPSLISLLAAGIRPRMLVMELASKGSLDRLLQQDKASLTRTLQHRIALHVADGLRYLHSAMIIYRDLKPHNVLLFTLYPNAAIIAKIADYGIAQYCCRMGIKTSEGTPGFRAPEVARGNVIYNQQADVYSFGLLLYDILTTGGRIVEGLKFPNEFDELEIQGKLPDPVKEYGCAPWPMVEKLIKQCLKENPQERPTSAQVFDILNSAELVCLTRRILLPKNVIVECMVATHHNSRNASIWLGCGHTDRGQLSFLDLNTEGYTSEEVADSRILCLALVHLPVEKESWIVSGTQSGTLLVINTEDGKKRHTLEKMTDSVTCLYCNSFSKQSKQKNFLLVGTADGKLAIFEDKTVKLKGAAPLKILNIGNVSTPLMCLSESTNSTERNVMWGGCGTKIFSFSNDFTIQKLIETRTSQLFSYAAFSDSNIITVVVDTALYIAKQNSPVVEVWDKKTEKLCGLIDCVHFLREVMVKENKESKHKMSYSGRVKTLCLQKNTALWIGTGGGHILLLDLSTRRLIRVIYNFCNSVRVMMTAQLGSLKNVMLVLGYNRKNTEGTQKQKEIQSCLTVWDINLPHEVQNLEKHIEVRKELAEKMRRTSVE
LRRK2 (Mus musculus, UniProt Q5S006), sequence (Q5S006 whole entry): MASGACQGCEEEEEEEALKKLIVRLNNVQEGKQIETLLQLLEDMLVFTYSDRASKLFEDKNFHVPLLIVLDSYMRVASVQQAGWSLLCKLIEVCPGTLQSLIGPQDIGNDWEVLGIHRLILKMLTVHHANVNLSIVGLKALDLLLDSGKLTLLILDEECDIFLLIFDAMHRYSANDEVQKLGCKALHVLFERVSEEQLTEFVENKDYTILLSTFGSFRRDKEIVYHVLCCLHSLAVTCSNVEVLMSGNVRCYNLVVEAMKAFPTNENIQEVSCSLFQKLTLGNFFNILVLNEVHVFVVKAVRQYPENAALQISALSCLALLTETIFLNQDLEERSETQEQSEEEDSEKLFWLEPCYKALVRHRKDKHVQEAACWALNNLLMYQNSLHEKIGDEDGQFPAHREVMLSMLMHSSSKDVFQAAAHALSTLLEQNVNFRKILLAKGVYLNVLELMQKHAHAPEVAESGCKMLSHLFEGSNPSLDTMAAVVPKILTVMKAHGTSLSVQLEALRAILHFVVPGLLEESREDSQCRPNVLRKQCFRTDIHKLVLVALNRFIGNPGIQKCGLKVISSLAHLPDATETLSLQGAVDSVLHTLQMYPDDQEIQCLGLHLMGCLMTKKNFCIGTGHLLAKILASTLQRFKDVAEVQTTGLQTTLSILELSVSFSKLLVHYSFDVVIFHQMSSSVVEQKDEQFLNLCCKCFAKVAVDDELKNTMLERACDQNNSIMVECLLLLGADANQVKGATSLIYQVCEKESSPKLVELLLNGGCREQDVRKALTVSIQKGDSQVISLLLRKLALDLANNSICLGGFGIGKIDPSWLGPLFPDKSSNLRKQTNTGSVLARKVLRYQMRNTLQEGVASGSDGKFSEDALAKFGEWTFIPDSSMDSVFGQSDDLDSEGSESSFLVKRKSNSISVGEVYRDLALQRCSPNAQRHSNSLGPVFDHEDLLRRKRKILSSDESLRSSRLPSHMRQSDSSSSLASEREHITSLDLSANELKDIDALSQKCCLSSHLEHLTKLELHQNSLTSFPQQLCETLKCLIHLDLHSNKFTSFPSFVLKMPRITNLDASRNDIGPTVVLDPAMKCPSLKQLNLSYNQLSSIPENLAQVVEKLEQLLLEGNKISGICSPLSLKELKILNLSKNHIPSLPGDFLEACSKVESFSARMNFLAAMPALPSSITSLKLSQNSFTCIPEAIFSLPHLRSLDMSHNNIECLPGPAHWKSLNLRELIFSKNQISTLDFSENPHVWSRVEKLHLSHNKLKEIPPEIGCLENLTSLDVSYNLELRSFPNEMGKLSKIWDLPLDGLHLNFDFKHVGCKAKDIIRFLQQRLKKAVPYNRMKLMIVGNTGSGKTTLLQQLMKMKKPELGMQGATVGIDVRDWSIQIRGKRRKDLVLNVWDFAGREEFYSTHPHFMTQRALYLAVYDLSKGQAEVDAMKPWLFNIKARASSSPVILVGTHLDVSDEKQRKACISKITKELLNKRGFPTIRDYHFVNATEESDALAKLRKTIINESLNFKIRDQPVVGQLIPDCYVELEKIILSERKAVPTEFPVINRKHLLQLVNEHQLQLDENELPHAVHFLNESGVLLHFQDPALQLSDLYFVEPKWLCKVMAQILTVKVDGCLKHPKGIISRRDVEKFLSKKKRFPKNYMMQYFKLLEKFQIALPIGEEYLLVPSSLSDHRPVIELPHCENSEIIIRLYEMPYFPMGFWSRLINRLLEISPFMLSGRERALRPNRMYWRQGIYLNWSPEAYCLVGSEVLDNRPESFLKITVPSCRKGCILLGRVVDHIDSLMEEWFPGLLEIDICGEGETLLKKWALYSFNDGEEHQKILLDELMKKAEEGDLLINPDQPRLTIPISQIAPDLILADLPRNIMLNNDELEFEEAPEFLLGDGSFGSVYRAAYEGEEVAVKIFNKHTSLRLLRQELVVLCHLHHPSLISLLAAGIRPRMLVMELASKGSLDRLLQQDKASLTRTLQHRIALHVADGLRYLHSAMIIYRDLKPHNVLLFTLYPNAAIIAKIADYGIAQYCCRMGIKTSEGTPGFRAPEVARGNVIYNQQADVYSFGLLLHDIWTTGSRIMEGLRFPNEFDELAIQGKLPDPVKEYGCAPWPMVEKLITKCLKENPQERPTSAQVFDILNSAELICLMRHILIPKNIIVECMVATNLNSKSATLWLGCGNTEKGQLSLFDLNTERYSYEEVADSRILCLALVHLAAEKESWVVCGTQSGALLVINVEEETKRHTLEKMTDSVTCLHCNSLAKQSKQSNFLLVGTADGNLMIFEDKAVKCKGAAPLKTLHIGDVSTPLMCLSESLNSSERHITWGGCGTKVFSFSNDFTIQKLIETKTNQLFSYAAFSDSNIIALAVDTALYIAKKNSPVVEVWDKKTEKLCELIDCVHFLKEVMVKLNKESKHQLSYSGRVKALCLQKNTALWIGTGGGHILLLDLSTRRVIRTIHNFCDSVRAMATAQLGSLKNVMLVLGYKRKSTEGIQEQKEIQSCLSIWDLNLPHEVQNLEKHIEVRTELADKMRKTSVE

CCNc1nc(Nc2cc(F)c(C(=O)N3CCOCC3)cc2OC)ncc1C(F)(F)F [GNE7915]
IC50 (LRRK2 [1]): 81 nM | P-LRRK2(S935) in RAW264.7 cells (LRRK2 [1]; +1 µM RapaBlock): 61.9 and 64.8 and 53.2 | P-LRRK2(S935) in RAW264.7 cells (LRRK2 [1]; No RapaBlock): 56 and 55.7 and 48.1 | residual kinase activity (LRRK2) (LRRK2 [2]; 0.495 nM drug, no FKBP12): 96 | residual kinase activity (LRRK2) (LRRK2 [2]; 1.52 nM drug, + 10 µM FKBP12): 66 | residual kinase activity (LRRK2) (LRRK2 [2]; 1.52 nM drug, no FKBP12): 75 | residual kinase activity (LRRK2) (LRRK2 [2]; 4.57 nM drug, + 10 µM FKBP12): 39 | residual kinase activity (LRRK2) (LRRK2 [2]; 4.57 nM drug, no FKBP12): 41 | residual kinase activity (LRRK2) (LRRK2 [2]; 13.7 nM drug, + 10 µM FKBP12): 15 | residual kinase activity (LRRK2) (LRRK2 [2]; 13.7 nM drug, no FKBP12): 16 | residual kinase activity (LRRK2) (LRRK2 [2]; 41.2 nM drug, + 10 µM FKBP12): 9 | residual kinase activity (LRRK2) (LRRK2 [2]; 41.2 nM drug, no FKBP12): 10 | residual kinase activity (LRRK2) (LRRK2 [2]; 123 nM drug, + 10 µM FKBP12): 6 | residual kinase activity (LRRK2) (LRRK2 [2]; 123 nM drug, no FKBP12): 3 | residual kinase activity (LRRK2) (LRRK2 [2]; 370 nM drug, + 10 µM FKBP12): 5 | residual kinase activity (LRRK2) (LRRK2 [2]; 370 nM drug, no FKBP12): 3 | residual kinase activity (LRRK2) (LRRK2 [2]; 1110 nM drug, no FKBP12): 3 | residual kinase activity (LRRK2) (LRRK2 [2]; 10000 nM drug, + 10 µM FKBP12): 3 | remaining activity at 0.000495 µM (LRRK2 [2]; read-out: residual kinase activity (LRRK2), 0.495 nM drug, + 10 µM FKBP12): 84% | remaining activity at 0.000495 µM (LRRK2 [2]; read-out: residual kinase activity (LRRK2), 0.495 nM drug, no FKBP12): 78% | remaining activity at 0.00152 µM (LRRK2 [2]; read-out: residual kinase activity (LRRK2), 1.52 nM drug, + 10 µM FKBP12): 68% | remaining activity at 0.00152 µM (LRRK2 [2]; read-out: residual kinase activity (LRRK2), 1.52 nM drug, no FKBP12): 68% | remaining activity at 0.00457 µM (LRRK2 [2]; read-out: residual kinase activity (LRRK2), 4.57 nM drug, + 10 µM FKBP12): 38% | remaining activity at 0.00457 µM (LRRK2 [2]; read-out: residual kinase activity (LRRK2), 4.57 nM drug, no FKBP12): 39% | remaining activity at 0.0137 µM (LRRK2 [2]; read-out: residual kinase activity (LRRK2), 13.7 nM drug, + 10 µM FKBP12): 17% | remaining activity at 0.0137 µM (LRRK2 [2]; read-out: residual kinase activity (LRRK2), 13.7 nM drug, no FKBP12): 18% | remaining activity at 0.0412 µM (LRRK2 [2]; read-out: residual kinase activity (LRRK2), 41.2 nM drug, + 10 µM FKBP12): 8% | remaining activity at 0.0412 µM (LRRK2 [2]; read-out: residual kinase activity (LRRK2), 41.2 nM drug, no FKBP12): 6% | remaining activity at 0.123 µM (LRRK2 [2]; read-out: residual kinase activity (LRRK2), 123 nM drug, + 10 µM FKBP12): 5% | remaining activity at 0.123 µM (LRRK2 [2]; read-out: residual kinase activity (LRRK2), 123 nM drug, no FKBP12): 4% | remaining activity at […] (LRRK2 [2]; read-out: residual kinase activity (LRRK2), 370 nM drug, + 10 µM FKBP12): 4% | remaining activity at […] (LRRK2 [2]; read-out: residual kinase activity (LRRK2), 370 nM drug, no FKBP12): 5% | remaining activity at 1.11 µM (LRRK2 [2]; read-out: residual kinase activity (LRRK2), 1110 nM drug, + 10 µM FKBP12): 5% | remaining activity at 1.11 µM (LRRK2 [2]; read-out: residual kinase activity (LRRK2), 1110 nM drug, no FKBP12): 4% | remaining activity at 3.33 µM (LRRK2 [2]; read-out: residual kinase activity (LRRK2), 3330 nM drug, + 10 µM FKBP12): 5% | remaining activity at 3.33 µM (LRRK2 [2]; read-out: residual kinase activity (LRRK2), 3330 nM drug, no FKBP12): 3% | remaining activity at 10 µM (LRRK2 [2]; read-out: residual kinase activity (LRRK2), 10000 nM drug, + 10 µM FKBP12): 5% | remaining activity at 10 µM (LRRK2 [2]; read-out: residual kinase activity (LRRK2), 10000 nM drug, no FKBP12): 3% | IC50 (LRRK2 [2]; without added FKBP12): 3 nM

CCON=C1C[C@H](O)[C@@H](C)[C@@H](/C(C)=C/[C@@H]2CC[C@@H](O)[C@H](OC)C2)OC(=O)[C@@H]2CCCCN2C(=O)C(=O)[C@]2(O)O[C@H]([C@@H](OC)C[C@@H](C)C/C(C)=C/[C@H]1CCCc1cccc[n+]1[O-])[C@@H](OC)C[C@H]2C [RapaBlock ethyl oxime]
blocking of mTOR inhibition by RapaLink-1 in cells (mTOR): less potent at blocking RapaLink-1 | blocking of mTOR inhibition by RapaLink-1 in cells (mTOR; listed as RapaBlock-Oxime): much less effective at blocking the inhibition | Ki (FKBP12): 360 nM
